The values that follow are results of earlier work, collected in patent publication US8536378B2 (The Board of Trustees of the Leland Stanford Junior …, priority 2007, dated 2013).

Bounds are passed on as bounds.

Data set [1] concerns latent HIV-1. As to conditions: fold more potent than prostratin.
In data set [2] the test system is CD4 and CXCR4 receptors.
The test system of data set [3] is latent HIV. The conditions noted are these: latently infected CD4+ T cells.
For data set [4], the system named is T-lymphoblastoid CEM-SS and C-8166 cell lines. As to conditions: in vitro.
For data set [5] the following is noted: compared with other phorbol esters such as PMA.
The conditions of data set [6]: estimate in reference note 20.

As to `CC1=C[C@H]2[C@@]3(O)[C@H](C)C[C@]4(OC(=O)Cc5ccccc5)C([C@@H]3C=C(CO)C[C@]2(O)C1=O)C4(C)C` (stereo partly drawn) [DPP, 12-deoxyphorbol-13-phenylacetate], the “potency in activating latent HIV-1 relative to prostratin” value in data set [1] is on record as 20-30 fold. For the same compound, in data set [2], the “downregulation of CD4 and CXCR4 receptors” value was “downregulates CD4 and CXCR4 receptors at nanomolar concentrations”.
As for `CCCCCCCCCCCCCC(=O)O[C@@H]1[C@@H](C)[C@@]2(O)[C@@H](C=C(CO)C[C@]3(O)C(=O)C(C)=C[C@@H]23)[C@@H]2C(C)(C)[C@]12OC(C)=O` [PMA, phorbol 12-myristate-13-acetate, reference compound], the “HIV gene expression / activation of latent HIV” value in data set [3] was “activate latent HIV”.
For the compound `CC(=O)O[C@@]12C[C@@H](C)[C@@]3(O)[C@@H](C=C(CO)C[C@]4(O)C(=O)C(C)=C[C@@H]34)[C@@H]1C2(C)C` [prostratin, 12-deoxyphorbol-13-acetate], in data set [3], the “HIV gene expression / activation of latent HIV” value is reported as “induces HIV gene expression”. Besides, in data set [2] (CEM-SS and MT-4 cell lines), the “CD4 receptors on cell surfaces” value is given as “significantly reduced”. Further, the “cytotoxicity: concentration up to which no sign of cytotoxicity was observed” value in data set [4] (CEM-SS and C-8166 cell lines) is more than 25 µM. In addition, the “prostratin concentration at which cell viability was restored to the level of uninfected controls” value in data set [4] (HIV-infected CEM-SS and C-8166 cell lines) is reported as “approximately 1 μM”. Further, in data set [5], the tumor-promoting activity result is given as “does not exhibit the tumor-promoting activity”. Also, the estimated oral bioavailability in data set [6] is approximately 28%.
